Experimental data taken from patent US12252524B2, “GIP/GLP1 co-agonist compounds” (Eli Lilly and Company, priority 2018, dated 2025).
Numbered stars: 1 amine (or outer) side, 2 acyl side, 3 side chain; on linkers, the order of the positions; unused ones are H or OH. Square brackets hold non-standard residues; d marks the D form. Side chains are listed from the residue outwards. Peptide text beside a SMILES is read from it. * marks the point of attachment. C20 diacid = O=C(O)CCCCCCCCCCCCCCCCCCC(=O)*; αMePhe(2-F) = C[C@](N)(Cc1ccccc1F)C(=O)O; γGlu = O=C(O)[C@H](CCC(=O)[*:2])N[*:1]; Desaminohistidyl = O=C(CCc1c[nH]cn1)*; αMeL = CC(C)C[C@](C)(N)C(=O)O; αMeP = C[C@@]1(C(=O)O)CCCN1; Orn = NCCC[C@H](N)C(=O)O; AEEA = NCCOCCOCC(=O)O; Aib = CC(C)(N)C(=O)O

What was measured:
[1] = molecular target: human GLP-1 receptor (GLP-1R) (Homo sapiens, UniProt P43220); experiment: cAMP pharmacological functional assay in presence of casein, hGLP-1R; type: cell-based; details: HEK293 cells expressing hGLP-1R, 0.1% Casein, geometric mean; read-out: hGLP1R cAMP Rel EC50 nM (SEM, n)
[2] = molecular target: T1, gastric inhibitory peptide receptor (GIPR) (Homo sapiens, UniProt P48546); experiment: cAMP pharmacological functional assay in presence of casein, hGIPR; type: cell-based; details: HEK293 cells expressing hGIPR, 0.1% Casein, geometric mean; read-out: hGIPR cAMP Rel EC50 nM (SEM, n)
T1 sequence (P48546 22-466): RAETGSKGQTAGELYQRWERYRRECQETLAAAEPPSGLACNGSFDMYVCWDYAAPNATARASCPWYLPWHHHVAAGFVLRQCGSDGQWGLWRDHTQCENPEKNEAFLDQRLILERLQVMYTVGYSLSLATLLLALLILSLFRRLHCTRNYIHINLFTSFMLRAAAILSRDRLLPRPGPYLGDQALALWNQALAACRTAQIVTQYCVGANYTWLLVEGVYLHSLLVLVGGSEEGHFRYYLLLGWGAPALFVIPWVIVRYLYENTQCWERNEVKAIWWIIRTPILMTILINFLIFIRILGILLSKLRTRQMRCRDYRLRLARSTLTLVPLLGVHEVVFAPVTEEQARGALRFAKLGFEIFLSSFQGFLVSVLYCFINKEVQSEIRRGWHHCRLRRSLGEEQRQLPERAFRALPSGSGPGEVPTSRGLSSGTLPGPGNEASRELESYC

human GLP-1 receptor (GLP-1R), sequence (P43220 24-463): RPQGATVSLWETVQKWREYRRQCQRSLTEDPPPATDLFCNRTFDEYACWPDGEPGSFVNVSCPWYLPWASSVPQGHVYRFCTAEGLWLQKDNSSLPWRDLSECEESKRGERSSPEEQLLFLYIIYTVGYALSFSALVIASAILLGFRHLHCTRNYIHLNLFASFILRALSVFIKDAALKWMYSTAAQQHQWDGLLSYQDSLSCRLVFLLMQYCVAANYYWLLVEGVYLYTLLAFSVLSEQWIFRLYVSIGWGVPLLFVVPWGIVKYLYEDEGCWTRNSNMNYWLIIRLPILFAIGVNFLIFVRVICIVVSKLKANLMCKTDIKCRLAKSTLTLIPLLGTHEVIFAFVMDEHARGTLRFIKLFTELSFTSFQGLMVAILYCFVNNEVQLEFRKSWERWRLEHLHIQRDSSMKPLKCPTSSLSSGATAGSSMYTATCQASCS

| SMILES | EC50 [1] [nM] | EC50 [2] [nM] |
| --- | --- | --- |
| CC[C@H](C)[C@H](NC(=O)[C@H](CC(C)C)NC(=O)[C@H](Cc1ccc(O)cc1)NC(=O)[C@H](CCC(=O)O)NC(=O)[C@@H](NC(=O)[C@H](Cc1ccccc1)NC(=O)[C@H](C)NC(=O)[C@H](Cc1c[nH]cn1)NC(=O)[C@H](CCC(N)=O)NC(=O)[C@H](C)NC(=O)[C@H](CCCCNC(=O)COCCOCCNC(=O)COCCOCCNC(=O)CC[C@H](NC(=O)CCCCCCCCCCCCCCCCCCC(=O)O)C(=O)O)NC(=O)[C@H](CCC(=O)O)NC(=O)[C@H](CC(=O)O)NC(=O)[C@H](CC(C)C)NC(=O)[C@H](CC(C)C)NC(=O)[C@@H](NC(=O)[C@H](CO)NC(=O)[C@H](Cc1ccc(O)cc1)NC(=O)[C@H](CC(=O)O)NC(=O)[C@H](CO)NC(=O)[C@@H](NC(=O)[C@H](Cc1ccccc1)NC(=O)[C@@H](NC(=O)CNC(=O)[C@H](CCC(=O)O)NC(=O)[C@]1(C)CCCN1C(=O)[C@@H](N)Cc1ccc(O)cc1)[C@@H](C)O)[C@@H](C)O)[C@@H](C)CC)[C@@H](C)CC)C(=O)N[C@@H](CCC(=O)O)C(=O)NCC(=O)NCC(=O)N1CCC[C@H]1C(=O)N[C@@H](CO)C(=O)N[C@@H](CO)C(=O)NCC(=O)N[C@@H](C)C(=O)N1CCC[C@H]1C(=O)N1CCC[C@H]1C(=O)N1CCC[C@H]1C(=O)N[C@@H](CO)C(N)=O [Example 194] (H-Y[αMeP]EGTFTSDYSILLDEK([AEEA-AEEA-γGlu-C20 diacid])AQHAFIEYLIEGGPSSGAPPPS-NH2; N-terminus assumed) | 0.284 | 0.423 |
| CC[C@H](C)[C@H](NC(=O)[C@H](CC(C)C)NC(=O)[C@H](Cc1ccc(O)cc1)NC(=O)[C@H](CCC(=O)O)NC(=O)[C@@H](NC(=O)[C@H](Cc1ccccc1)NC(=O)[C@H](C)NC(=O)C(C)(C)NC(=O)[C@H](CCC(N)=O)NC(=O)[C@H](C)NC(=O)[C@H](CCCCNC(=O)COCCOCCNC(=O)COCCOCCNC(=O)[C@@H](N)CCCCNC(=O)CCCCCCCCCCCCCCCCCCC(=O)O)NC(=O)[C@H](CCCCN)NC(=O)[C@H](CC(=O)O)NC(=O)[C@H](CC(C)C)NC(=O)[C@H](CC(C)C)NC(=O)[C@@H](NC(=O)[C@H](CO)NC(=O)[C@H](Cc1ccc(O)cc1)NC(=O)[C@H](CC(=O)O)NC(=O)[C@H](CO)NC(=O)[C@@H](NC(=O)[C@H](Cc1ccccc1)NC(=O)[C@@H](NC(=O)CNC(=O)[C@H](CCC(=O)O)NC(=O)C(C)(C)NC(=O)[C@@H](N)Cc1ccc(O)cc1)[C@@H](C)O)[C@@H](C)O)[C@@H](C)CC)[C@@H](C)CC)C(=O)N[C@@H](CCC(=O)O)C(=O)NCC(=O)NCC(=O)N1CCC[C@H]1C(=O)N[C@@H](CO)C(=O)N[C@@H](CO)C(=O)NCC(=O)N[C@@H](C)C(=O)N1CCC[C@H]1C(=O)N1CCC[C@H]1C(=O)N1CCC[C@H]1C(=O)N[C@@H](CO)C(N)=O [Example 113] | 0.233 | 0.166 |
| CC[C@H](C)[C@H](NC(=O)[C@H](CC(C)C)NC(=O)[C@H](Cc1ccc(O)cc1)NC(=O)[C@@H](CCC(=O)O)NC(=O)[C@@H](NC(=O)[C@H](Cc1ccccc1)NC(=O)[C@@H](NC(=O)C(C)(C)NC(=O)[C@H](CCC(N)=O)NC(=O)[C@H](C)NC(=O)[C@H](CCCCNC(=O)COCCOCCNC(=O)COCCOCCNC(=O)CC[C@H](NC(=O)CCCCCCCCCCCCCCCCCCC(=O)O)C(=O)O)NC(=O)[C@H](CCCN)NC(=O)[C@H](CC(=O)O)NC(=O)[C@H](CC(C)C)NC(=O)[C@](C)(CC(C)C)NC(=O)[C@@H](NC(=O)[C@H](CO)NC(=O)[C@H](Cc1c[nH]cn1)NC(=O)[C@H](CC(=O)O)NC(=O)[C@H](CO)NC(=O)[C@@H](NC(=O)[C@](C)(Cc1ccccc1F)NC(=O)[C@@H](NC(=O)CNC(=O)[C@H](CCC(=O)O)NC(=O)C(C)(C)NC(=O)[C@@H](N)Cc1ccc(O)cc1)[C@@H](C)O)[C@@H](C)O)[C@@H](C)CC)[C@@H](C)O)[C@@H](C)CC)C(=O)N[C@@H](CCC(=O)O)C(=O)NCC(=O)NCC(=O)N1CCC[C@H]1C(=O)N[C@@H](CO)C(=O)N[C@@H](CO)C(=O)NCC(=O)N[C@@H](C)C(=O)N1CCC[C@H]1C(=O)N1CCC[C@H]1C(=O)N1CCC[C@H]1C(=O)N[C@@H](CO)C(N)=O [Example 171] (H-Y[Aib]EGT[αMePhe(2-F)]TSDHSI[αMeL]LD[Orn]K([AEEA-AEEA-γGlu-C20 diacid])AQ[Aib]TFI[dE]YLIEGGPSSGAPPPS-NH2) | 0.75 | 0.223 |
| CC[C@H](C)[C@H](NC(=O)[C@H](CC(C)C)NC(=O)[C@H](Cc1ccc(O)cc1)NC(=O)[C@@H](CCC(=O)O)NC(=O)[C@@H](NC(=O)[C@H](Cc1ccccc1)NC(=O)[C@H](CCC(=O)O)NC(=O)C(C)(C)NC(=O)[C@H](CCC(N)=O)NC(=O)[C@H](C)NC(=O)[C@H](CCCCNC(=O)COCCOCCNC(=O)COCCOCCNC(=O)CC[C@H](NC(=O)CCCCCCCCCCCCCCCCCCC(=O)O)C(=O)O)NC(=O)[C@H](CCC(=O)O)NC(=O)[C@H](CC(=O)O)NC(=O)[C@H](CC(C)C)NC(=O)[C@](C)(CC(C)C)NC(=O)[C@@H](NC(=O)[C@H](CO)NC(=O)[C@H](CCC(N)=O)NC(=O)[C@H](CC(=O)O)NC(=O)[C@H](CO)NC(=O)[C@@H](NC(=O)[C@](C)(Cc1ccccc1F)NC(=O)[C@@H](NC(=O)CNC(=O)[C@H](CCC(=O)O)NC(=O)C(C)(C)NC(=O)[C@@H](N)Cc1ccc(O)cc1)[C@@H](C)O)[C@@H](C)O)[C@@H](C)CC)[C@@H](C)CC)C(=O)N[C@@H](CCC(=O)O)C(=O)NCC(=O)NCC(=O)N1CCC[C@H]1C(=O)N[C@@H](CO)C(=O)N[C@@H](CO)C(=O)NCC(=O)N[C@@H](C)C(=O)N1CCC[C@H]1C(=O)N1CCC[C@H]1C(=O)N1CCC[C@H]1C(=O)N[C@@H](CO)C(N)=O [Example 187] (H-Y[Aib]EGT[αMePhe(2-F)]TSDQSI[αMeL]LDEK([AEEA-AEEA-γGlu-C20 diacid])AQ[Aib]EFI[dE]YLIEGGPSSGAPPPS-NH2) | 0.0577 | 0.0371 |
| CC[C@H](C)[C@H](NC(=O)[C@H](CC(C)C)NC(=O)[C@H](Cc1ccc(O)cc1)NC(=O)[C@H](CCC(=O)O)NC(=O)[C@@H](NC(=O)[C@H](Cc1ccccc1)NC(=O)[C@H](C)NC(=O)[C@H](CCC(N)=O)NC(=O)[C@H](CCC(N)=O)NC(=O)[C@H](C)NC(=O)[C@H](CCCCNC(=O)COCCOCCNC(=O)COCCOCCNC(=O)CC[C@H](NC(=O)CCCCCCCCCCCCCCCCCCC(=O)O)C(=O)O)NC(=O)[C@H](CCC(=O)O)NC(=O)[C@H](CC(=O)O)NC(=O)[C@H](CC(C)C)NC(=O)[C@H](CC(C)C)NC(=O)[C@@H](NC(=O)[C@H](CO)NC(=O)[C@H](Cc1ccc(O)cc1)NC(=O)[C@H](CC(=O)O)NC(=O)[C@H](CO)NC(=O)[C@@H](NC(=O)[C@H](Cc1ccccc1)NC(=O)[C@@H](NC(=O)CNC(=O)[C@H](CCC(=O)O)NC(=O)[C@]1(C)CCCN1C(=O)CCc1c[nH]cn1)[C@@H](C)O)[C@@H](C)O)[C@@H](C)CC)[C@@H](C)CC)C(=O)N[C@@H](CCC(=O)O)C(=O)NCC(=O)NCC(=O)N1CCC[C@H]1C(=O)N[C@@H](CO)C(=O)N[C@@H](CO)C(=O)NCC(=O)N[C@@H](C)C(=O)N1CCC[C@H]1C(=O)N1CCC[C@H]1C(=O)N1CCC[C@H]1C(=O)N[C@@H](CO)C(N)=O [Example 201] (Desaminohistidyl-[αMeP]EGTFTSDYSILLDEK([AEEA-AEEA-γGlu-C20 diacid])AQQAFIEYLIEGGPSSGAPPPS-NH2) | 0.0385 | > 30 |
